According to patent US20090098049A1, “Targeting transducible molecules to specific cell types” (The Regents of the University of California, priority 2004, published 2009):
Non-standard residues stand in square brackets, D forms with d. No end group written: not given here.

Columns and labels:
[1] = molecular target: CXCR4 receptor on human Namalwa Burkitt's lymphoma cells (human) (UniProt P61073); assay: flow cytometry on Namalwa cells; inhibition of 12G5-PE binding to CXCR4
[2] = system: CXCR4-expressing Namalwa lymphoma cells; assay: Namalwa lymphoma cell killing (trypan blue exclusion; apoptosis by DNA content); assay type: cell-based, Human; settings: for cell viability / cell number (in words): 30 μM peptide, single peptides or domains in trans, FIG. 3A
Description: (a) Namalwa lymphoma cells were treated with 40 μM TATp53C′ or DV3-TATp53C′ peptide for 48 h. Cell viability was assessed by trypan blue exclusion. Data represents the mean and standard error from three independent experiments. […] Cells were treated with 5 μM peptide for 24 hours and analyzed for DNA content by flow cytometry. […] Cells were treated with indicated concentrations of cdk2 antagonists TAT-RxL or DV3-TAT-RxL peptides for 48 h. Cell viability was assessed by trypan blue exclusion. Data represents the mean and standard error from three independent experiments. (e) Namalwa lymphoma (CXCR4+) cells were treated with DV3-TATp53C′, TATp53C′ or DV3-TATp53MUT peptides for 24 hours. Apoptosis was determined by <2N DNA content as measured by flow cytometry and DNA staining.
Namalwa lymphoma cells were treated with 30 μM peptide for 48 h. Cell viability was assessed by trypan blue exclusion. Data represents the mean and standard error from three independent experiments. […] Cells were treated with 30 μM DV3-TATp53C′ or parental TATp53C′ peptide for 48 h in the presence or absence of a 200 μM excess of DV3 peptide. Cell viability was assessed by trypan blue exclusion. Data represents the mean and standard error from three independent experiments.
Cell Culture and Flow Cytometry. TA3/St, H1299 and 293T cells were maintained in DMEM plus 10% fetal bovine serum (FBS) and penicillin/streptomycin (P/S). Namalwa B cells (ATCC) were maintained in RPMI plus 10% FBS, P/S. All cells were maintained at 37° C. in 5% CO2. Short-term cell viability was assessed by counting Trypan blue excluding cells on a hemocytometer. For cell cycle analysis, peptide treated cells were analyzed by FACS with 10 μg/ml propidium iodide in 0.5% NP-40. DNA profiles were analyzed using a FACScan and CellQuest software (Becton Dickinson, San Jose, Calif.).

CXCR4 receptor = molecular target: T1, CXCR4 receptor (Homo sapiens, UniProt P61073); assay: CXCR4 binding assay (inhibition of 12G5-PE anti-CXCR4 antibody binding, flow cytometry); settings: linked DV3 and TAT domains versus single domains, FIG. 1B
T1 construct: CXCR4 expressing Namalwa cells were washed 3 times with PBS/0.5% BSA and incubated on ice; endogenous in cells; host or cells: Namalwa B cells (human Burkitt's lymphoma, ATCC)
T1 sequence (P61073 whole entry, the tested form may be a part): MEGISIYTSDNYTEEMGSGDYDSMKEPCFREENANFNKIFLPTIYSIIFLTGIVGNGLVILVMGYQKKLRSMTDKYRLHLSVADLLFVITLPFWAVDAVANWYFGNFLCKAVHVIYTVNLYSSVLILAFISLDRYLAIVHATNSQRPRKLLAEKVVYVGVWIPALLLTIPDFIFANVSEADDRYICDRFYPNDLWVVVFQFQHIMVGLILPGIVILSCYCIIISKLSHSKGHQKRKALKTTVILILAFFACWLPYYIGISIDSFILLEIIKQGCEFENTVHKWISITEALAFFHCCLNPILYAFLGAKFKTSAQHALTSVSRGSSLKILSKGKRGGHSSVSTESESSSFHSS
Description: (a) Sequences of peptides used in some embodiments. All peptides were synthesized using D-isomer residues, except for the TAT-RxL peptides. (b) Human Namalwa lymphoma cells that overexpress CXCR4 receptor were incubated with increasing concentrations of peptide, followed by fluorescent PE-conjugated anti-CXCR4 monoclonal antibody incubation, then analyzed for antibody binding to CXCR4 receptor (mean fluorescence) by flow cytometry. Graph plots relative fluorescence of cells with respect to cells treated with antibody only. Data represents the mean and standard error from three independent experiments.
CXCR4 binding assay. CXCR4 expressing Namalwa cells were washed 3 times with PBS/0.5% BSA and incubated on ice with phycoerythrin (PE)-labeled anti-CXCR4 monoclonal antibody (12G5-PE, R&D Systems, WI) and peptide. PE-labeled isotype matched antibody was used to control for non-specific cell surface binding. […]
DV3 Enhances the Affinity of TAT Peptides for CXCR4 Expressing Cells. […] Human Namalwa Burkitt's lymphoma cells overexpressing the CXCR4 receptor were treated with various peptides to block the CXCR4 receptor, then incubated with phycoerythrin (PE) conjugated anti-CXCR4 antibody and analyzed by flow cytometry.

[3] = system: H1299 lung adenocarcinoma cells; assay: Peptide treatment of p53-deficient H1299 cells; assay type: cell-based, human; settings: 30 μM peptide, FIG. 2C
Description: (§1) (a) Namalwa lymphoma cells were treated with 40 μM TATp53C′ or DV3-TATp53C′ peptide for 48 h. Cell viability was assessed by trypan blue exclusion. Data represents the mean and standard error from three independent experiments. (b) DV3-TATp53C′ and TATp53C′ peptides induce similar level of p53-dependent G1 cell cycle arrest in CXCR4 non-expressing TA3/St mammary carcinoma cells. Cells were treated with 5 μM peptide for 24 hours and analyzed for DNA content by flow cytometry. (c) DV3-TATp53C′, TATp53C′ and control DV3 peptide (30 μM) have no effect on CXCR4 non-expressing, p53-deficient H1299 lung adenocarcinoma cells. […] Cells were treated with indicated concentrations of cdk2 antagonists TAT-RxL or DV3-TAT-RxL peptides for 48 h. Cell viability was assessed by trypan blue exclusion. Data represents the mean and standard error from three independent experiments. […] Apoptosis was determined by <2N DNA content as measured by flow cytometry and DNA staining.
(§2) Cell Culture and Flow Cytometry. […] Short-term cell viability was assessed by counting Trypan blue excluding cells on a hemocytometer. For cell cycle analysis, peptide treated cells were analyzed by FACS with 10 μg/ml propidium iodide in 0.5% NP-40. DNA profiles were analyzed using a FACScan and CellQuest software (Becton Dickinson, San Jose, Calif.).

Namalwa lymphoma cells = assay: Mouse model of metastatic peritoneal lymphoma (survival); assay type: in vivo; settings: SCID mice, Namalwa cells i.p., 180 nmol peptide once a day for 12 days, FIG. 5
Description: FIG. 5. Targeted DV3-TATp53C′ peptide has enhanced ability to treat mouse model of aggressive, metastatic peritoneal lymphoma. Namalwa lymphoma cells were intraperitoneally injected into SCID mice and allowed to proliferate for 48 hours. Mice were then injected once a day for 12 days with vehicle control (n=10), or 180 nmol DV3-TATp53C′ peptide (n=11), non-targeted, parental TATp53C′ peptide (n=5), or control DV3-only peptide (n=5).

[4] = system: TA3/St mammary carcinoma cells; assay: Peptide treatment of CXCR4 non-expressing TA3/St cells (cell cycle by flow cytometry); assay type: cell-based; settings: 5 μM peptide, 24 hours, DNA content by flow cytometry, FIG. 2B
Description: as §1, §2

Sequence of CXCR4 receptor on human Namalwa Burkitt's lymphoma cells (human) (P61073 whole entry, the tested form may be a part): as above

DV3-TATp53C′ peptide
IC50 [1]: < 10 nM

DV3-TAT peptide
IC50 [1]: < 10 nM | fold increased affinity (against DV3 or TAT peptide alone) [1]: 100 fold

CC(C)C[C@@H](N)C(=O)NCC(=O)N[C@H](C)C(=O)N[C@H](CO)C(=O)N[C@H](Cc1c[nH]c2ccccc12)C(=O)N[C@H](Cc1c[nH]cn1)C(=O)N[C@H](CCCNC(=N)N)C(=O)N1CCC[C@@H]1C(=O)N[C@H](CC(=O)O)C(=O)N[C@H](CCCCN)C(=O)NCC(=O)N[C@H](CCCNC(=N)N)C(=O)N[C@H](CCCNC(=N)N)C(=O)N[C@H](CCCNC(=N)N)C(=O)N[C@H](CCC(N)=O)C(=O)N[C@H](CCCNC(=N)N)C(=O)N[C@H](CCCNC(=N)N)C(=O)N[C@H](CCCCN)C(=O)N[C@H](CCCCN)C(=O)N[C@H](CCCNC(=N)N)C(=O)NCC(=O)O [DV3-TAT]
cell viability / cell number (in words) ([2]; Namalwa cells, 48 h): minimal effects on cell number | increased affinity for the CXCR4 receptor (CXCR4 receptor): ~100 fold

[dL]G[dA][dS][dW][dH][dR][dP][dD][dK]G[dR][dR][dR][dQ][dR][dR][dK][dK][dR]G[dK][dK][dH][dR][dS][dT][dS][dQ]G[dK][dK][dS][dK][dL][dH][dS][dS][dH][dA][dR][dS]G [DV3-TATp53C′]
effect on p53-deficient H1299 cells [3]: little to no effect | median survival (Namalwa lymphoma cells): 41 days | reduction of cell number ([2]; 40 μM peptide, 48 h, trypan blue exclusion, FIG. 2A): > 80% | cell killing in presence of excess competing DV3 peptide ([2]; Namalwa cells, 30 μM peptide co-administered with 200 μM DV3 peptide, 48 h, FIG. 3B): reduced the potency of DV3-TATp53C′ peptide to levels similar to that of parental TATp53C′ peptide | cell viability / cell number (in words) ([2]; Namalwa cells, 48 h): decreased viability to a significantly greater extent than treatment with parental TAT-p53C′ peptide | cell number / cell killing (in words) ([2]; Namalwa cells, p53 peptides, FIG. 2A): enhanced cell killing | G1 cell cycle arrest [4]: induced a G1 arrest that was indistinguishable from treatment with parental TATp53C′ peptide

[dL]G[dA][dS][dW][dH][dR][dP][dD][dK] [DV3 peptide (CXCR4 receptor ligand)]
IC50 [1]: 1000 nM
